Converted amounts (≈) assume the structure as drawn.
Columns and labels:
[1] = Hygroscopicity of solid forms of compound of formula (IV) (Ph. Eur. classification); type: physicochemical
Protocol: For the thermogravimetric analyses, approx. 5 - 10 mg of sample were placed in aluminum pans, accurately weighed and hermetically closed with perforation lids. […] The samples were then heated under a flow of nitrogen of about 50 mL/min using a heating rate of 5 K/min. The term "micronization" denotes a process whereby the particle size of a solid material is diminished to a d50 value of less than IOµm by the aid of a suitable method, such as milling, bashing or grinding. […] The term "anti-solvent crystallization" denotes a process wherein supers aturation and as a result thereof crystallisation is achieved by addition of an antisolvent to the product solution. The term "ambient conditions" denotes conditions as experienced in a standard laboratory, e.g. atmospheric pressure, air, ambient temperature between 18 °C and 28 °C, humidity between 30 %rH and 80 %rH. The term "hygroscopicity" describes the ability of a solid material to adsorb moisture. The hygroscopicity of a given API is characterized [European Pharmacopoeia - 6th Edition (2008), Chapter 5.11) by the increase in mass when the relative humidity is raised from 0 %rH to 90 %rH: o non-hygroscopic: weight increase Am < 0.2%; o slightly hygroscopic: weight increase 0.2% < Am < 2.0%; o hygroscopic: weight increase 2.0% < Am < 15.0%; o very hygroscopic: weight increase Am > 15.0%; o deliquescent: sufficient water is adsorbed to form a liquid. The IUPAC lamda convention (W.H. Powell, Pure & Appl. Chem. […] The bonding number "n" of a heteroatom is the sum of the total number of valence bonds to adjacent atoms, if any, and the number of attached hydrogen atoms. The bonding number of a heteroatom is standard when it has the value given in the following table: n=4: C, Si, Ge, Sn, Pb; n=3 B, N, P, As, Sb, Bi, n=2: O, S, Se, Te, Po; n=l; F, CI, Br, I, At. A nonstandard bonding number of a (neutral) heteroatom is indicated by the symbol "λη", where "n" is the bonding number. […]

[2] = Solid form stability of forms of compound of formula (IV) (Temperature / Humidity Controlled XRPD, storage, suspension); type: physicochemical
Protocol: The term"XRPD" denotes the analytical method of X-Ray Powder Diffraction. XRPD patterns were recorded at ambient conditions in transmission geometry with a STOE STADI P diffractometer (Cu K alpha radiation source, primary monochromator, position sensitive detector, angular range 3° to 42° 2Theta, approximately 60 minutes total measurement time). The repeatability of the angular values is in the range of 2Theta ±0.2°. The term "approximately" given in combination with an angular value denotes the repeatability which is in the range of 2Theta ±0.2°. The samples were prepared and analyzed without further processing (e.g. grinding or sieving) of the substance. The relative XRPD peak intensity is dependent upon many factors such as structure factor, temperature factor, crystallinity, polarization factor, multiplicity, and Lorentz factor. Relative intensities may vary considerably from one measurement to another due to preferred orientation effects. Humidity Controlled XRPD analyses were performed in reflection geometry with a Siemens D5000 Diffractometer (Cu radiation source, Ni K beta filter, Scintillation detector, angular range 3° to 42° 2Theta, approximately 180 minutes total measurement time per humidity level). The diffractometer is equipped with an MRI (Materials Research Instruments) humidity chamber. The humidity within the chamber is adjusted with an ANSYCO humidity controller (SYCOS H-HOT). For single crystal structure analysis a single crystal sample was mounted in a nylon loop on a goniometer and measured at ambient conditions. Alternatively, the crystal was cooled in a nitrogen stream during measurement. Data were collected on a GEMINI R Ultra diffractometer from Oxford Diffraction. Cu-radiation of 1.54 A wavelength was used for data collection. Data was processed with the Oxford Diffraction CRYSALIS software. The crystal structure was solved and refined with standard crystallographic software. In this case the program ShelXTL from Bruker AXS (Karlsruhe) was used. The abbreviation "FWHM" denotes the full width at half maximum, which is a width of a peak (e.g. appearing in a spectrum, particularly in an XRPD pattern) at its half height. The term "sharp Bragg diffraction peak" in connection with X-ray diffraction patterns denotes a peak which is observed if Bragg' s law of diffraction is fulfilled. Generally, the FWHM of a sharp Bragg diffraction peak is less than 0.5° 2-theta. The term "amorphous halo" in connection with X-ray diffraction patterns denotes an approximately bell- shaped diffraction maximum in the X-ray powder diffraction pattern of an amorphous material. The FWHM of an amorphous halo is on principle larger than the FWHM of the peak of crystalline material. The terms "FTIR" and "IR" denote the analytical method of infrared spectroscopy. The IR-spectra of the samples are recorded as film of a Nujol suspension consisting of approx. 5 mg of sample and approx. 5 mg of Nujol (mineral oil) between two sodium chloride plates (cross section 13 mm) in transmittance with a FTIR- spectrometer. The spectra were recorded in spectral range between 4000 cm"1 and 600 cm"1, resolution 2 cm"1, and 300 coadded scans on a Magna 860 (thermo/Nicolet) equipped with a DTGS detector. The term "Raman" denotes the analytical method of Raman spectroscopy. For recording Raman spectra, the samples were spread on a glass slide. Raman spectra were recorded in the range of 150-3800 cm"1 with an ARAMIS (HoribaJobinYvon) Raman microscope equipped with a Peltier cooled CCD detector, at excitation of 633 nm, a 1200 1/mm grating, a x50 objective and with 3 exposures of 3s, or 7s for weak Raman scatterers. The term "DSC" denotes the analytical method of Differential Scanning Calorimetry. DSC thermograms were recorded using a Mettler-Toledo™ differential scanning calorimeter DSC820, DSC821 or DSC1 with a FRS05 sensor. […]

physchem = assay: physchem
Protocol: Anal. Chem. Instrum. […] Drug Delivery Rev. […] The binding constant (K) of the gamma-CD inclusion complex ({drug4g}) was calculated from the initial straight line portion of the phase solubility diagram by linear regression, according to the following equation [T. Higuchi et al., Adv. Anal. Chem. Instrum.

[3] = Biopharmaceutical classification system (BCS); type: physicochemical
Excerpt: The compound of formula (IV), its manufacture, its pharmacological activity as inverse agonists of the GABA A a5 receptor, and its use for the treatment, prevention and/or delay of progression of various central nervous system (CNS) conditions have been described in WO 2009/071476. […] Res. (1995) 12:413-420]. […] If anhydrous solid forms of the compound of formula (IV), as described in WO 2009/071476, are selected for clinical development, a physical instability in terms of hydrate formation during pharmaceutical processing and/or storage of the drug product is possible. […] Further, the discovery of new solid forms of an API (polymorphs, solvates, salts, inclusion complexes) enlarges the repertoire of materials that a formulation scientist has available with which to design a pharmaceutical dosage form of a drug with a targeted release profile or other desired characteristics. Therefore, there is a need to find more solid forms of the compound of formula (IV). […] The instant invention provides novel solid forms of the compound of formula (IV) with improved solubility, dissolution rate, oral bioavailability as well as increased stability of the API. In addition, the instant invention provides novel inclusion complexes of compounds of formula (IV) with cyclodextrins. Such inclusion complexes further feature improved dissolution rate and bioavailability. […]

For `Cc1onc(-c2ccc(F)cc2)c1COc1ccc(C(=O)N2CCS(=O)(=O)CC2)cn1` [Amorphous Form ({drug4f}), (1,1-dioxo-1lambda6-thiomorpholin-4-yl)-{6-[3-(4-fluoro-phenyl)-5-methyl-isoxazol-4-ylmethoxy]-pyridin-3-yl]-methanone], the hygroscopicity [1] was “slightly hygroscopic (slightly hygroscopic: weight increase 0.2% < Am < 2.0%)” and the “phase change upon storage at 100 rH at ambient temperature” value ([2]; Form C: prolonged period, e.g. 30 days) was “no phase transformation has been observed”.

With `Cc1onc(-c2ccc(F)cc2)c1COc1ccc(C(=O)N2CCS(=O)(=O)CC2)cn1.O` [Form B ({drug4b}), (1,1-dioxo-1lambda6-thiomorpholin-4-yl)-{6-[3-(4-fluoro-phenyl)-5-methyl-isoxazol-4-ylmethoxy]-pyridin-3-yl]-methanone monohydrate] the hygroscopicity [1] was “hygroscopic (hygroscopic: weight increase 2.0% < Am < 15.0%)”, the “heating temperature at which the form transforms into Form A” value [2] was > 100 °C and the “stability as compared to Form A” value ([2]; in the presence of humidity, e.g. at ambient conditions) was “substantially increased”.

In the case of `Cc1onc(-c2ccc(F)cc2)c1COc1ccc(C(=O)N2CCS(=O)(=O)CC2)cn1` [compound of formula (IV), (1,1-dioxo-1lambda6-thiomorpholin-4-yl)-{6-[3-(4-fluoro-phenyl)-5-methyl-isoxazol-4-ylmethoxy]-pyridin-3-yl]-methanone], the “type of phase solubility diagram with gamma-cyclodextrin” value (physchem) is reported as “Bs-type behavior”, the aqueous solubility [3] is reported as “low aqueous solubility” and the biopharmaceutical classification [3] is reported as “BCS 2”.

Work on `OC[C@H]1O[C@@H]2O[C@H]3[C@H](O)[C@@H](O)[C@@H](O[C@H]4[C@H](O)[C@@H](O)[C@@H](O[C@H]5[C@H](O)[C@@H](O)[C@@H](O[C@H]6[C@H](O)[C@@H](O)[C@@H](O[C@H]7[C@H](O)[C@@H](O)[C@@H](O[C@H]8[C@H](O)[C@@H](O)[C@@H](O[C@H]9[C@H](O)[C@@H](O)[C@@H](O[C@H]1[C@H](O)[C@H]2O)O[C@@H]9CO)O[C@@H]8CO)O[C@@H]7CO)O[C@@H]6CO)O[C@@H]5CO)O[C@@H]4CO)O[C@@H]3CO` [gamma-cyclodextrin] yielded a solubility (physchem; water) of 150 mM (≈ 195 mg/mL).

Reference: patent publication EP2792360A1, “(1aR,12bS)-8-cyclohexyl-11-fluoro-N-((1-methylcyclopropyl)sulfonyl)-1a-((3-methyl-3,8-diazabicyclo[3.2.1]oct-8-yl)carbonyl)-1,1a,2,2b-tetrahydrocyclopropa[d]indolo[2,1-a][2]benzazepine-5-carboxamide for use in treating HCV” (IP Gesellschaft für Management mbH, priority 2013, dated 2014)
